Measured values reported in US20070128217A1 (priority 2003, published 2007).

Tests used:
[1] = system: antibodies in sera from SARS patients (sera 1a, 1b, 2, 6, 37, 62, London, SARS-yellow, SARS-green); assay type: binding, human; design: Binding of serum 6 to linear peptides of protein X1 of SARS-CoV Urbani / Binding of serum 37 to linear peptides of protein X1 of SARS-CoV Urbani / Binding of serum 6 to looped/cyclic peptide (PEPSCAN-ELISA) / Binding of serum 37 to looped/cyclic peptide (PEPSCAN-ELISA) / Binding of serum 37 to looped/cyclic peptides of protein X1 of SARS-CoV Urbani / Binding of serum 6 to linear peptides of protein X2 / Binding of serum 37 to linear peptides of protein X2 / Binding of serum 37 to looped/cyclic peptides of protein X2 of SARS-CoV Urbani / Binding of serum 6 to linear peptides of protein M of SARS-CoV Urbani / Binding of serum 37 to linear peptides of protein M of SARS-CoV Urbani / Binding of serum 6 to looped/cyclic peptides of protein M of SARS-CoV Urbani / Binding of serum 37 to looped/cyclic peptides of protein M of SARS-CoV Urbani / Binding of serum 6 to linear peptides of protein X3 of SARS-CoV Urbani / Binding of serum 37 to linear peptides of protein X3 of SARS-CoV Urbani / Binding of serum 37 to looped/cyclic peptides of protein X3 of SARS-CoV Urbani / Binding of serum 6 to linear peptides of protein X4 of SARS-CoV Urbani / Binding of serum 37 to linear peptides of protein X4 of SARS-CoV Urbani / Binding of serum 37 to looped/cyclic peptides of protein X4 of SARS-CoV Urbani / Binding of serum 6 to linear peptides of protein X5 of SARS-CoV Urbani / Binding of serum 37 to linear peptides of protein X5 of SARS-CoV Urbani / Binding of serum 37 to looped/cyclic peptides of protein X5 of SARS-CoV Urbani / Binding of serum 6 to linear peptides of protein N of SARS-CoV Urbani / Binding of serum 37 to linear peptides of protein N of SARS-CoV Urbani / Binding of serum 6 to linear peptide (PEPSCAN-ELISA) / Binding of serum 1a to looped/cyclic peptides of protein N of SARS-CoV Urbani / Binding of serum 1b to looped/cyclic peptides of protein N of SARS-CoV Urbani / Binding of serum 2 to looped/cyclic peptides of protein N of SARS-CoV Urbani / Binding of serum 6 to looped/cyclic peptides of protein N of SARS-CoV Urbani / Binding of serum 37 to looped/cyclic peptides of protein N of SARS-CoV Urbani / Binding of serum 62 to looped/cyclic peptides of protein N of SARS-CoV Urbani / Binding of serum London to looped/cyclic peptides of protein N of SARS-CoV Urbani / Binding of serum SARS-green to looped/cyclic peptides of protein N of SARS-CoV Urbani: unit not given here
[2] = system: control sera (pooled serum of ten healthy LUMC hospital workers; commercial negative donor pooled serum from the Dutch bloodbank); assay type: binding, human; design: Binding of Control serum LUMC to linear peptides / Binding of Control serum Blood-bank to linear peptides / Binding of Control serum LUMC to looped peptides / Binding of Control Serum Blood-Bank to Looped peptides / Binding of Control serum LUMC to linear peptides of the protein M of SARS-CoV Urbani / Binding of Control serum Blood-bank to linear peptides of the protein M of SARS-CoV Urbani / Binding of Control serum LUMC to looped peptides of the protein M of SARS-CoV Urbani / Binding of Control Serum Blood-Bank to Looped peptides of the protein M of SARS-CoV Urbani: unit not given here
[3] = system: rabbit serum obtained by immunizing a rabbit with the SARS-CoV strain Frankfurt 1; assay type: binding; design: Binding of a rabbit serum to linear peptides / Binding of a rabbit serum to looped peptides / Rabbit serum linear peptides / Rabbit serum looped peptides / Binding of a rabbit serum to linear peptides of protein N of SARS-CoV Urbani (Rabbit serum linear peptides) / Binding of a rabbit serum to looped/cyclic peptides of protein N of SARS-CoV Urbani (Rabbit serum looped peptides): unit not given here

For WPVTLACFVLAAVYR, the “Binding of serum 1a to linear peptides of protein M of SARS-CoV Urbani” value [1] was 0.7, the “Binding of serum 1a to looped/cyclic peptides of protein M of SARS-CoV Urbani” value [1] was 0.8 and the “Binding of serum 1b to linear peptides of protein M of SARS-CoV Urbani” value [1] was 0.5. The “Binding of serum 1b to looped/cyclic peptides of protein M of SARS-CoV Urbani” value [1] was 0.6, the “Binding of serum 2 to linear peptides of protein M of SARS-CoV Urbani” value [1] was 0.4 and the “Binding of serum 2 to looped/cyclic peptides of protein M of SARS-CoV Urbani” value [1] was 0.8. The “Binding of serum 6 to linear peptides of protein M of SARS-CoV Urbani” value [1] was 0.3, the “Binding of serum 6 to looped/cyclic peptides of protein M of SARS-CoV Urbani” value [1] was 1.1 and the “Binding of serum 37 to linear peptides of protein M of SARS-CoV Urbani” value [1] was 0.4. For the same sequence, the “Binding of serum 37 to looped/cyclic peptides of protein M of SARS-CoV Urbani” value [1] was 0.8, the “Binding of serum 62 to linear peptides of protein M of SARS-CoV Urbani” value [1] was 0.4 and the “Binding of serum 62 to looped/cyclic peptides of protein M of SARS-CoV Urbani” value [1] was 1.1. For the same sequence, the “Binding of serum London to linear peptides of protein M of SARS-CoV Urbani” value [1] was 0.3, the “Binding of serum London to looped/cyclic peptides of protein M of SARS-CoV Urbani” value [1] was 0.4 and the “Binding of serum SARS-green to linear peptides of protein M of SARS-CoV Urbani” value [1] was 0.4. The “Binding of serum SARS-green to looped/cyclic peptides of protein M of SARS-CoV Urbani” value [1] was 0.2, the “Binding of serum SARS-yellow to linear peptides of protein M of SARS-CoV Urbani” value [1] was 0.2 and the “Binding of serum SARS-yellow to looped/cyclic peptides of protein M of SARS-CoV Urbani” value [1] was 0.4. The “Binding of Control Serum Blood-Bank to Looped peptides of the protein M of SARS-CoV Urbani” value [2] was 0.8, the “Binding of Control serum Blood-bank to linear peptides of the protein M of SARS-CoV Urbani” value [2] was 0.7 and the “Binding of Control serum LUMC to linear peptides of the protein M of SARS-CoV Urbani” value [2] was 0.5. For the same sequence, the “Binding of Control serum LUMC to looped peptides of the protein M of SARS-CoV Urbani” value [2] was 1.2, the “Rabbit serum linear peptides” value [3] was 0.2 and the “Rabbit serum looped peptides” value [3] was 0.4.

With LVLKMLHSSSLTSLL the “Binding of serum 1a to linear peptides of protein X2” value [1] was 0.6, the “Binding of serum 1a to looped/cyclic peptides of protein X2 of SARS-CoV Urbani” value [1] was 0.6 and the “Binding of serum 1b to linear peptides of protein X2” value [1] was 0.4. For the same sequence, the “Binding of serum 1b to looped/cyclic peptides of protein X2 of SARS-CoV Urbani” value [1] was 0.5, the “Binding of serum 2 to linear peptides of protein X2” value [1] was 0.3 and the “Binding of serum 2 to looped/cyclic peptides of protein X2 of SARS-CoV Urbani” value [1] was 0.3. The “Binding of serum 6 to linear peptides of protein X2” value [1] was 0.3, the “Binding of serum 6 to looped/cyclic peptides of protein X2 of SARS-CoV Urbani” value [1] was 0.4 and the “Binding of serum 37 to linear peptides of protein X2” value [1] was 0.4. For the same sequence, the “Binding of serum 37 to looped/cyclic peptides of protein X2 of SARS-CoV Urbani” value [1] was 0.4, the “Binding of serum 62 to linear peptides of protein X2” value [1] was 0.5 and the “Binding of serum 62 to looped/cyclic peptides of protein X2 of SARS-CoV Urbani” value [1] was 0.6. For the same sequence, the “Binding of serum London to linear peptides of protein X2” value [1] was 0.3, the “Binding of serum London to looped/cyclic peptides of protein X2 of SARS-CoV Urbani” value [1] was 0.2 and the “Binding of serum SARS-green to linear peptides of protein X2” value [1] was 0.5. For the same sequence, the “Binding of serum SARS-green to looped/cyclic peptides of protein X2 of SARS-CoV Urbani” value [1] was 0.3, the “Binding of serum SARS-yellow to linear peptides of protein X2” value [1] was 0.4 and the “Binding of serum SARS-yellow to looped/cyclic peptides of protein X2 of SARS-CoV Urbani” value [1] was 0.4. For the same sequence, the “Binding of Control Serum Blood-Bank to Looped peptides” value [2] was 0.7, the “Binding of Control serum Blood-bank to linear peptides” value [2] was 0.5 and the “Binding of Control serum LUMC to linear peptides” value [2] was 0.2. The “Binding of Control serum LUMC to looped peptides” value [2] was 0.6, the “Binding of a rabbit serum to linear peptides” value [3] was 0.3 and the “Binding of a rabbit serum to looped peptides” value [3] was 0.4.
